From US11844790B2, “Methods of treating hidradenitis suppurativa” (CHEMOCENTRYX, INC., priority 2020, dated 2023)
Marks after values point to notes of the source that are not given here.

What was measured:
[1] = tested on: patients with moderate HS (Hurley Stage II) or severe HS (Hurley Stage III); test: Phase II AURORA clinical trial, Hidradenitis Suppurativa Clinical Response (HiSCR) and secondary efficacy endpoints; assay type: in vivo, human; settings: for HiSCR (%) / HiSCR n/N / HiSCR Δ % vs placebo: week 12
Method: (§1) The study is a randomized, double-blind, placebo-controlled, three group Phase 2 trial in approximately 390 subjects with moderate to severe hidradenitis suppurativa (Hurley stage II or III). Subjects will be randomized 1:1:1 to a treatment of 10 mg Avacopan twice daily, 30 mg Avacopan twice daily or placebo for 12 weeks. Other systemic treatments for HS including anti-TNF-αtreatments are prohibited. Stable antibiotic therapy with doxycycline or minocycline is allowed as specified in the protocol. Subjects treated with 10 mg or 30 mg twice daily during the blinded, placebo-controlled 12-week treatment period will be followed by an additional 24-week, active treatment period during which they will continue to receive the same dose regimen, either 10 mg or 30 mg Avacopan twice daily. Subjects on placebo who complete the blinded, placebo-controlled 12-week period will be re-randomized 1:1 to receive 10 mg or 30 mg Avacopan twice daily during the 24-week active treatment period. During the 24-week active treatment period the treatment assignment to 10 mg or 30 mg twice daily will not be disclosed to the patient, study personnel at the site or the sponsor. Thereafter, all subjects will be followed without study drug for 8 weeks before they exit the study.
Subjects will be randomized 1:1:1 to receive 10 mg Avacopan twice daily, 30 mg Avacopan twice daily or matching placebo for 12 weeks in a double-blind, placebo-controlled manner.
(§2) The primary objectives of this clinical trial include: • 1. Evaluation of the efficacy of Avacopan compared to placebo in subjects with Hurley Stage II or III hidradenitis suppurativa (HS) based on subjects achieving a Hidradenitis Suppurativa Clinical Response (HiSCR) after 12 weeks of treatment. HiSCR is defined as at least a 50% reduction in abscess and inflammatory nodule (AN) count with no increase in abscess count and no increase in draining fistula count at Week 12 relative to baseline. • 2. Evaluation of the safety of Avacopan compared to placebo in these subjects based on the adverse event incidence, changes from baseline in laboratory parameters, and vital signs Secondary Objectives
The secondary objectives of this study include: • 1. Evaluation of the efficacy of Avacopan compared to placebo in these subjects include: • a. HiSCR: proportion of subjects achieving HiSCR by each timepoint, • b. The subject's global assessment of skin pain numeric rating scale (NRS), • c. The modified Sartorius score, and • d. Achieving an AN count of 0, 1, or 2 • 2. Assessment of subject reported outcomes including health-related quality-of-life changes based on the Short Form-36 version 2 (SF-36 v2), the EuroQOL-5D-5L (EQ-5D-5L), Hidradenitis Suppurativa Quality of Life (HiSQOL) Index, the Dermatology Life Quality Index (DLQI), and the Work Productivity and Activity Impairment Questionnaire: Specific Health Problem (WPAI: SHP) with Avacopan compared to placebo. • 3. Evaluation of the pharmacokinetic profile of Avacopan in subjects with HS. • 4. Evaluation of the safety and efficacy of Avacopan treatment from Day 1 by each timepoint up to Week 44 in subjects with HS. • 5. Evaluation of the efficacy of avacopan compared to placebo in these subjects include: • a. The Sartorius score, International HS Severity Scoring System (IHS4) score, HS Physician Global Assessment (HS-PGA), • b. Proportion of subjects who experienced flare, who experienced loss of response during Period 2, who received oral antibiotic rescue therapy or lesion intervention, and who received disallowed opioid pain therapy, and • c. The duration of flare in days. • 6. Evaluation of health-economic information. Study Treatments
The International Hidradenitis Suppurativa Severity Score (IHS4) is simple to calculate and validated with the use of existing physician-derived outcomes such as HS-PGA, Hurley classification, MSS or Expert Opinion classification) and patient-reported outcome measure (DLQI). […]

[2] = Solubility of Avacopan as a function of pH; assay type: physicochemical; settings: pH value of 3 or above (gastric fluid)
[3] = tested on: patients with moderate-to-severe HS; settings: human, in vivo
Method: as §1, §2
The majority of TEAEs were related to underlying HS and were mild to moderate.

[4] = Avacopan 10 mg BID, All patients
[5] = Avacopan 10 mg BID, Hurley Stage II
[6] = Avacopan 10 mg BID, Hurley Stage III
[7] = Avacopan 30 mg BID, All patients
[8] = Avacopan 30 mg BID, Hurley Stage II
[9] = Avacopan 30 mg BID, Hurley Stage III

## Cc1ccc(NC(=O)[C@H]2CCCN(C(=O)c3c(C)cccc3F)[C@H]2c2ccc(NC3CCCC3)cc2)cc1C(F)(F)F [Avacopan]
[1]; 10 mg BID and 30 mg BID, combined study population (Hurley Stage II plus III), after 12 weeks
  primary endpoint: proportion of all patients achieving HiSCR against placebo: not achieved with statistical significance at either dose level
[1]; 30 mg BID, combined study population, after 12 weeks
  proportion of all patients achieving HiSCR against placebo: numerical improvement
[1]; 30 mg BID, pre-specified population of Hurley Stage III (severe) HS patients
  HiSCR response against placebo: statistically significant higher response than placebo
[1]; [4]
  HiSCR (%): (22.4) %
  HiSCR n/N: 30/134
  HiSCR Δ % vs placebo: −8.2%
[1]; [5]
  HiSCR (%): (21.4) %
  HiSCR n/N: 18/84
  HiSCR Δ % vs placebo: −13.8%
[1]; [6]
  HiSCR (%): (24.0) %
  HiSCR n/N: 12/50
  HiSCR Δ % vs placebo: 1.8%
[1]; [7]
  HiSCR (%): (35.1) %
  HiSCR n/N: 47/134
  HiSCR Δ % vs placebo: 4.4%
[1]; [8]
  HiSCR (%): (31.0) %
  HiSCR n/N: 27/87
  HiSCR Δ % vs placebo: −4.3%
[1]; [9]
  HiSCR (%): (42.6) %
  HiSCR n/N: 20/47
[1]; Avacopan 30 mg BID, Hurley Stage III, p = 0.0349
  HiSCR Δ % vs placebo: 20.3* %
[1]; Hurley Stage III patients
  AN (abscesses and inflammatory nodules) count, % change from baseline to week 12 relative to placebo: Favorable reductions
  International HS Severity Score (IHS4), % change from baseline to week 12 relative to placebo: Favorable reductions
  abscess count, % change from baseline to week 12 relative to placebo: Favorable reductions
  draining fistula count, % change from baseline to week 12 relative to placebo: Favorable reductions
[2]
  solubility: normally insoluble
[3]
  safety profile: favorable safety profile
[3]; 12 weeks
  Serious TEAEs: 1.5%
  Treatment emergent adverse events (TEAEs) of all types: 48.5%
